Assay results published in ChEMBL document CHEMBL1201862, “PubChem BioAssay data set” (2004).
The source made the active and inactive calls.

Assays:
[1] = biological target: T1, Alkaline phosphatase, tissue-nonspecific isozyme (Homo sapiens, UniProt P05186); test: human TNAP enzyme inhibitors, SAR follow-up, biochemical, luminescent, dose response (AID 1056)
T1 sequence (P05186 whole entry): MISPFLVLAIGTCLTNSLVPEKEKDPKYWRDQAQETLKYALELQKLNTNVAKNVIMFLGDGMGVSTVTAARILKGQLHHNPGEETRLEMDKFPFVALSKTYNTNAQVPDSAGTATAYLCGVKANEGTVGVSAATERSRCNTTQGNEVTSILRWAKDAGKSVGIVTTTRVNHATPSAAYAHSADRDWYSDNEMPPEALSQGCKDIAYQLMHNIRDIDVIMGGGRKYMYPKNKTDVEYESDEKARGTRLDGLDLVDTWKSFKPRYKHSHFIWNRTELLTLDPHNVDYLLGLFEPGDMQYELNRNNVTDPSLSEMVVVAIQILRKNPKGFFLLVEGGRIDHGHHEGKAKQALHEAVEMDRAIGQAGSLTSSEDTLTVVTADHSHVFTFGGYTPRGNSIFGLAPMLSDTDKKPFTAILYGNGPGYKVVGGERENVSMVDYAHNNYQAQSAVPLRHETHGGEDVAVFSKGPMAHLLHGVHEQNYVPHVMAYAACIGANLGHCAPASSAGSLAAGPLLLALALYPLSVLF

[2] = biological target: T2, G-protein coupled receptor 55 (Homo sapiens, UniProt Q9Y2T6); test: GPR55 agonists via beta-arrestin recruitment, primary screen, imaging, U2OS cells, beta-arrestin-GFP redistribution (AID 1961); type: functional
T2 sequence (Q9Y2T6 whole entry): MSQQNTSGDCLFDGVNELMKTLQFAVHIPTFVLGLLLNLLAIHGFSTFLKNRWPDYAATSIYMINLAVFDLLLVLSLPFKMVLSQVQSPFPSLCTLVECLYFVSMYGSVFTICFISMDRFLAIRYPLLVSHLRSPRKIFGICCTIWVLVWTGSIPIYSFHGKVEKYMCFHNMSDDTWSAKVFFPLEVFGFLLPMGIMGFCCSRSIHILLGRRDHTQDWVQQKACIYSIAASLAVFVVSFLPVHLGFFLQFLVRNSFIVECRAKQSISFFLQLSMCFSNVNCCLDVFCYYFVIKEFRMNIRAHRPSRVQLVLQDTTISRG

[3] = biological target: T2, G-protein coupled receptor 55; test: SAR analysis of selective Agonists of GPR55 using an Image-Based Assay. [Related pubchem assays (depositor defined):AID1961, AID1965]; type: functional
Cannabinoid receptor 1 = Cannabinoid receptor 1 (Homo sapiens, UniProt P21554); test: SAR analysis of antagonists of the Cannabinoid Receptor 1 using an Image-Based Assay. [Related pubchem assays (depositor defined):AID1961, AID1965]; type: functional
Sequence of Cannabinoid receptor 1 (P21554 whole entry): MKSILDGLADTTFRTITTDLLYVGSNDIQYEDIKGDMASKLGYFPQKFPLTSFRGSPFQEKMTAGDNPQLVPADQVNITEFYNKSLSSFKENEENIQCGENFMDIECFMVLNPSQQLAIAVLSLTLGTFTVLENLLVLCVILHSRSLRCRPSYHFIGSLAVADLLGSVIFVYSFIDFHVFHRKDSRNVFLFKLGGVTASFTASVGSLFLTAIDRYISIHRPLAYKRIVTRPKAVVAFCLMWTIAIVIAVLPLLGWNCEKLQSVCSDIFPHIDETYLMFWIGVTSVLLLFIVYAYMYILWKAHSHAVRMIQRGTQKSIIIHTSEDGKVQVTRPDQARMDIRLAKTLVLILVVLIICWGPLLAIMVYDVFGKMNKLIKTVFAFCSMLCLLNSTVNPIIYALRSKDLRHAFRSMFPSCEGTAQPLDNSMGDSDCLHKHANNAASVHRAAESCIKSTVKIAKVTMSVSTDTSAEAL

Cannabinoid receptor 2 [4] = biological target: T3, Cannabinoid receptor 2 (Homo sapiens, UniProt P34972); test: SAR analysis of agonists of the Cannabinoid Receptor 2 using an Image-Based Assay - Set 2. [Related pubchem assays (depositor defined):AID1961, AID1965]; type: functional
T3 sequence (P34972 whole entry): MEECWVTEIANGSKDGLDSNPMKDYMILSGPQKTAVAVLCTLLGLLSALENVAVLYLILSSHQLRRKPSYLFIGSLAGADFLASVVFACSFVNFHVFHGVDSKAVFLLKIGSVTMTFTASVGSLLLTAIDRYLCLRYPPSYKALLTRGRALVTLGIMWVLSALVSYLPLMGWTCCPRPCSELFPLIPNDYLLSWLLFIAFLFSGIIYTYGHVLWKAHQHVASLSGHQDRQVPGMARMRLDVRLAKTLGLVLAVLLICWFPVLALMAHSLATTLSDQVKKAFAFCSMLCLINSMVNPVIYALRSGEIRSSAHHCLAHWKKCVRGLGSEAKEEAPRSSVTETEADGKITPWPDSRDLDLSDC

Cannabinoid receptor 2 [5] = biological target: T3, Cannabinoid receptor 2; test: SAR analysis of antagonists of the Cannabinoid Receptor 2 using an Image-Based Assay - Set 2. [Related pubchem assays (depositor defined):AID1961, AID1965]; type: functional
[6] = biological target: DNA dC->dU-editing enzyme APOBEC-3G (Homo sapiens, UniProt Q9HC16); test: Dose Response confirmation of small molecule APOBEC3G DNA Deaminase Inhibitors via a fluorescence-based single-stranded DNA deaminase assay. [Related pubchem assays (depositor defined):AID493012, AID493028]; type: functional
Sequence of DNA dC->dU-editing enzyme APOBEC-3G (Q9HC16 whole entry): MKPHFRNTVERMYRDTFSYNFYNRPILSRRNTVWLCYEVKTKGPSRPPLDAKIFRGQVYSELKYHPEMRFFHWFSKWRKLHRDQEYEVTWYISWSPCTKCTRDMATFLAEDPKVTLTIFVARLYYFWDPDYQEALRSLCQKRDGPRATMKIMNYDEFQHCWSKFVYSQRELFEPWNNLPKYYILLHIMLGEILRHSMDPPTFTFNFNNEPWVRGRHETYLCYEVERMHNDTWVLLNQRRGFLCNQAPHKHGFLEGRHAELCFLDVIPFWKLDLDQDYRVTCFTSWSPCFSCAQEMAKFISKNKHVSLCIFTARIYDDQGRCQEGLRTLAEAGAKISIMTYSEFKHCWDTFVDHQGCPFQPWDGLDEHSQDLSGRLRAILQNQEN

[7] = biological target: DNA dC->dU-editing enzyme APOBEC-3A (Homo sapiens, UniProt P31941); test: APOBEC3A DNA deaminase inhibitors, dose response, biochemical (AID 504722); type: functional
Sequence of DNA dC->dU-editing enzyme APOBEC-3A (P31941 whole entry): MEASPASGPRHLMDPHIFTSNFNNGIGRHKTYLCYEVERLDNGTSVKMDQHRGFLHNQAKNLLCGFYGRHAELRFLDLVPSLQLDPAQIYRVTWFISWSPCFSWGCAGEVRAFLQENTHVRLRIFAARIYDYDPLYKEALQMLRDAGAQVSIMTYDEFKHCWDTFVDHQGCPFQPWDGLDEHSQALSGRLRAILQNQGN

Beta-lactamase [8] = biological target: Beta-lactamase (Salmonella choleraesuis (strain SC-B67), UniProt Q5J463); test: Epi-absorbance-based counterscreen for selective VIM-2 inhibitors: dose response biochemical high throughput screening assay to identify inhibitors of TEM-1 serine-beta-lactamase.
Sequence of Beta-lactamase (Salmonella choleraesuis (strain SC-B67), UniProt Q5J463) (Q5J463 whole entry): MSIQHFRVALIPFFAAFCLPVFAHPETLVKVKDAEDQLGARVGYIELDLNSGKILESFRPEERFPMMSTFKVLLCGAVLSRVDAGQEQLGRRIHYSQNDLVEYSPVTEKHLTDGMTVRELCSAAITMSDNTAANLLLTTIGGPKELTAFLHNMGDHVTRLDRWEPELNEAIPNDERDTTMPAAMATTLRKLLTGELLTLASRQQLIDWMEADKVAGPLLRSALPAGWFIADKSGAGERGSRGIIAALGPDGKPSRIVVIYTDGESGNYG

Beta-lactamase [9] = biological target: T4, Beta-lactamase (Pseudomonas aeruginosa, UniProt Q79MP6); test: […] counterscreen for selective VIM-2 inhibitors: dose response biochemical high throughput screening assay to identify inhibitors of IMP-1 metallo-beta-lactamase.
T4 sequence (Q79MP6 whole entry): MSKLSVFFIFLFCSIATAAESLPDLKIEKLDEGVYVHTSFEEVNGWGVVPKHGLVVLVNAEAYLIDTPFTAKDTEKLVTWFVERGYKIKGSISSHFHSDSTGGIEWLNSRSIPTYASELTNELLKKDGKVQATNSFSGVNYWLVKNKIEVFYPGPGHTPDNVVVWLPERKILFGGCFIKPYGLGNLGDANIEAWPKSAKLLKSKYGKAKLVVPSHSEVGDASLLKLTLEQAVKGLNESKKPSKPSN

Beta-lactamase [10] = biological target: T4, Beta-lactamase; test: IMP-1 metallo-beta-lactamase inhibitors, dose response, selectivity assay for VIM-2 inhibitor project, biochemical, epi-absorbance (AID 1920)
[11] = biological target: FAD-linked sulfhydryl oxidase ALR (Homo sapiens, UniProt P55789); test: inhibitors of human ALR sulfhydryl oxidase, dose response, biochemical, H2O2 detection, luminescence, cherry-pick (AID 493248)
Sequence of FAD-linked sulfhydryl oxidase ALR (P55789 whole entry): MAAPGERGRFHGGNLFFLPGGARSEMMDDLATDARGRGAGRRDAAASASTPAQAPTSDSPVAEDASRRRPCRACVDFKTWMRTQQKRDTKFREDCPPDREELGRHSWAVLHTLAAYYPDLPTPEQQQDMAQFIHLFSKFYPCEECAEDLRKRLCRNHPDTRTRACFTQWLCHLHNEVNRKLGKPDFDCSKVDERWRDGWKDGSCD

Troponin, cardiac muscle = Troponin, cardiac muscle (Homo sapiens, UniProt P19429+P45379+P63316); test: Fluorescence-based biochemical high throughput dose response assay for activators of the calcium sensitivity of cardiac Regulated Thin Filaments (RTF). [Related pubchem assays (depositor defined):AID493008, AID493018, AID504382, AID504383]; type: protein-complex assay
[12] = biological target: T2, G-protein coupled receptor 55; test: GPR55 antagonists blocking LPI-driven arrestin recruitment, primary screen, imaging, U2OS, beta-arrestin-GFP, LPI agonist (AID 2013); type: functional;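 note: antagonist potency measured as reduced agonist-driven arrestin aggregation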
[13] = Luminescence Cell-Based Dose Retest to Confirm Inhibitors of Cancer Stem Cells. [Related pubchem assays (depositor defined):AID2717, AID2721]; type: functional; conditions: Homo sapiens
[14] = biological target: T5, Heat shock factor protein 1 (Mus musculus, UniProt P38532); test: inhibition of MG132-induced HSE-luciferase signal, confirmation, cell-based, NIH3T3, luminescence, dose retest (AID 2382); type: functional;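 note: NIH3T3 fibroblasts with HSF1-driven luciferase reporter stressed by proteasome inhibitor MG132; luminescence from HSF1-driven luciferase expression after 8 hours of MG132 stress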
T5 sequence (P38532 whole entry): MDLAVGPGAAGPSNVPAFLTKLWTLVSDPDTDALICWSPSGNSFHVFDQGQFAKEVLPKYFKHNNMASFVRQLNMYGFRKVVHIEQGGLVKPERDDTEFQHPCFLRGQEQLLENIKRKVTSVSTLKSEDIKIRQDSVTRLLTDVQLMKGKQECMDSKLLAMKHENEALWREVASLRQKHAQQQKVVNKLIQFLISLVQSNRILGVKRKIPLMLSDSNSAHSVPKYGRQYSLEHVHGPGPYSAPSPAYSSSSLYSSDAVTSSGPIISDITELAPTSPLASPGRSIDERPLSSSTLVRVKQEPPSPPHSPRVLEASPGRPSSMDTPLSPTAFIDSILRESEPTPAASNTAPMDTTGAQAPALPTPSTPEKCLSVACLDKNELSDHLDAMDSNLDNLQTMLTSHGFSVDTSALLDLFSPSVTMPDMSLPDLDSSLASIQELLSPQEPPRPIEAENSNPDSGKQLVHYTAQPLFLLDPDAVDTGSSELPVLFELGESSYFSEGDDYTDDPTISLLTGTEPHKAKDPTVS

BJ [15] = test: cells; type: functional, cell-based; conditions: Homo sapiens
BJ [16] = test: cytotoxicity toward BJ-TERT-LT-ST fibroblasts, dose response, cell-based, RAS-independent, luminescence (AID 1935); type: functional; conditions: Homo sapiens;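 note: BJ fibroblasts immortalized with TERT plus LT and ST oncogenes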
A-375 = test: A375 melanoma cell viability reduction, dose response, counter-screen for MITF modulator project, cherry-pick samples, set 2 (AID 540335); type: functional, cell-based; conditions: Homo sapiens
BJ [17] = test: cytotoxicity toward BJ-TERT fibroblasts, dose response, cell-based, RAS-independent, luminescence (AID 1933); type: functional; conditions: Homo sapiens
[18] = biological target: T6, Microphthalmia-associated transcription factor (Homo sapiens, UniProt O75030); test: TRPM1 promoter luciferase signal decrease, dose response, MITF inhibitor project, cell-based, SK-MEL-5, cherry-picked, set 3 (AID 493073); type: functional
T6 sequence (O75030 whole entry): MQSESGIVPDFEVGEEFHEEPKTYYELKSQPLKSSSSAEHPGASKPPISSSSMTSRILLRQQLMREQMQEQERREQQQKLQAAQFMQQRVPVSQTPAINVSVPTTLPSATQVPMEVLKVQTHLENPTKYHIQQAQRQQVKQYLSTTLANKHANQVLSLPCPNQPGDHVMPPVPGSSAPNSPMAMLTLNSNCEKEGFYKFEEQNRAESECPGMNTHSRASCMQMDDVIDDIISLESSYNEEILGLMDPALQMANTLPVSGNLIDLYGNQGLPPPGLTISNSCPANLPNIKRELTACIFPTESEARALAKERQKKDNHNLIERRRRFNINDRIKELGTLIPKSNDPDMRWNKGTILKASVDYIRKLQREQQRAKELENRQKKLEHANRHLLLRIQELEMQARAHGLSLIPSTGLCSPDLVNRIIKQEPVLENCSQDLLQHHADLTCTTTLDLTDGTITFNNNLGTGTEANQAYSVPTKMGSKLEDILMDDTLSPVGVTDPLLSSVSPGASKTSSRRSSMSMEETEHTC

[19] = cytotoxicity toward DRD oncogenic fibroblasts, dose response, cell-based, non-viral oncogenic, luminescence (AID 1934); type: functional; conditions: Homo sapiens
[20] = biological target: Glyceraldehyde-3-phosphate dehydrogenase (Homo sapiens, UniProt P04406)
Sequence of Glyceraldehyde-3-phosphate dehydrogenase (P04406 whole entry): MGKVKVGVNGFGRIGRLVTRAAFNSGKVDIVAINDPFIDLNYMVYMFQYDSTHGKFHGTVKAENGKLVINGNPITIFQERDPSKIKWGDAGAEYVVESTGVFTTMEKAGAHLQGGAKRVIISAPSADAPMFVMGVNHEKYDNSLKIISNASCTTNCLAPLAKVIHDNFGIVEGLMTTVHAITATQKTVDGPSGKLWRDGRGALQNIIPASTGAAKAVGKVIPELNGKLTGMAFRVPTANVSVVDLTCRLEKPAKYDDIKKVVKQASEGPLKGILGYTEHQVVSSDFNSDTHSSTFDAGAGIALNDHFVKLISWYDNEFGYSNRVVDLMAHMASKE

Cytochrome P450 3A4 = Cytochrome P450 3A4 (Homo sapiens, UniProt P08684);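 note: CYP3A4 tested as one member of a cytochrome P450 panel screen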
Sequence of Cytochrome P450 3A4 (P08684 whole entry): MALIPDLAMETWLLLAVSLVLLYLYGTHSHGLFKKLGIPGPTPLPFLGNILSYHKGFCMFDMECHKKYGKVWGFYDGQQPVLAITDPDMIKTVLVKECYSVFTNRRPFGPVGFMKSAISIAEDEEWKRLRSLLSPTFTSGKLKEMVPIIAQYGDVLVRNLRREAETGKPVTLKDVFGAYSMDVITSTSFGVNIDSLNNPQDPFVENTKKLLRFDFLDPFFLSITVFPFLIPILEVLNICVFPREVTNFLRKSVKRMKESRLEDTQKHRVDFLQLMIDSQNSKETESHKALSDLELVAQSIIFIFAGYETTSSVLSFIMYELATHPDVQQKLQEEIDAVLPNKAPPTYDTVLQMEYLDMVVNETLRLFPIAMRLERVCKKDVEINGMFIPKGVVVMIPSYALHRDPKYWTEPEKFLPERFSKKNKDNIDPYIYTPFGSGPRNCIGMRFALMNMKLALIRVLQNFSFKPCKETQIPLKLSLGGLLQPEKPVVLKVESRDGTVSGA

[21] = (§1) Counterscreen for antagonists of the orexin 1 receptor (OX1R; HCRTR1): Fluorescence-based cell-based high throughput dose response assay to identify antagonists of the parental CHO cell line. [Related pubchem assays (depositor defined):AID434989, AID435008, AID463079, AID485270, AID492963, AID492964, AID492965, AID493232, AID504699, AID504701]; type: functional
[22] = biological target: T7, Orexin/Hypocretin receptor type 1 (Homo sapiens, UniProt O43613); test: Homogeneous Time Resolved Fluorescence (HTRF)-based cell-based high throughput dose response assay for antagonists of the orexin 1 receptor (OX1R; HCRTR1). [Related pubchem assays (depositor defined):AID434989, AID435008, AID463079, AID485270, AID492963, AID492964, AID492965, AID493232, AID504717, AID504718]; type: functional
T7 sequence (O43613 whole entry): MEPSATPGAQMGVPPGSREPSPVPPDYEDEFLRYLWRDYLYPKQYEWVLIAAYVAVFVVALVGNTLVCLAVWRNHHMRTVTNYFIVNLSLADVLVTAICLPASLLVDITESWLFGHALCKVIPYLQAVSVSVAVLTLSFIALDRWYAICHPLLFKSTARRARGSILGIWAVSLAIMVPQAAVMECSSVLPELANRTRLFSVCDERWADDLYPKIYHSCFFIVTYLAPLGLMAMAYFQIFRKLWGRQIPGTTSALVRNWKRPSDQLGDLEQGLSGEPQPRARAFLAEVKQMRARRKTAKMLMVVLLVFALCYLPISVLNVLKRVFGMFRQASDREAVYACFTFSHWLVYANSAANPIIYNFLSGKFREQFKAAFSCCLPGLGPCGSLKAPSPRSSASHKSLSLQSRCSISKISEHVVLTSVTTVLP

[23] = biological target: T7, Orexin/Hypocretin receptor type 1; test: Fluorescence-based cell-based high throughput dose response assay for antagonists of the orexin 1 receptor (OX1R; HCRTR1). [Related pubchem assays (depositor defined):AID434989, AID435008, AID463079, AID485270, AID492963, AID492964, AID492965, AID493232, AID504717, AID504718]; type: functional
CHO-K1 = test: as §1, with “Homogeneous time resolved fluorescence (HTRF)-based” for “Fluorescence-based”, “cell-based” for “cell-based high throughput”, “CHO-K1” for “CHO”; type: functional; conditions: Cricetulus griseus;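 note: potency for inhibition of ATP-stimulated IP1 production as antagonists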
[24] = system: Streptococcus sp. 'group A'; test: growth inhibition of control SK(-) GAS strain, dose response, counter-screen for streptokinase expression inhibitor project, luminescence, kanamycin, BacTiterGlo, confirmation (AID 1900); type: functional, organism-based
Streptococcus = test: Group A Streptococcus viability loss, dose response, counter-screen for streptokinase expression inhibitor project, luminescence, BacTiterGlo (AID 1915); type: functional, organism-based;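 note: potency for reduction of bacterial viability or growth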
[25] = HEp-2 cell cytotoxicity, dose response, cytotoxicity control for RSV inhibitor project, HTS (AID 2410); type: functional; conditions: human respiratory syncytial virus

CCOc1cc(C)c(C(C)C)cc1S(=O)(=O)Nc1cccnc1
IC50 [1]: 18.9 µM (active)

COc1ccc2cc(C)c3nnc(SCC(=O)Nc4nc(-c5ccc(F)cc5)cs4)n3c2c1
EC50 [2]: < 500 nM (active)
EC50 [3]: 0.164 µM (active)
IC50 (Cannabinoid receptor 1): > 32 µM (inactive)
EC50 (Cannabinoid receptor 2 [4]): > 32 µM (inactive)
IC50 (Cannabinoid receptor 2 [5]): > 32 µM (inactive)

S=c1[nH]nc(-c2ccco2)n1Cc1ccccc1
IC50 [6]: 2.89 µM (active)
IC50 [7]: > 100 µM (inactive)
IC50 (Beta-lactamase [8]): > 59.6 µM (inactive)
IC50 (Beta-lactamase [9]): > 59.6 µM (inactive)
IC50 (Beta-lactamase [10]): > 59.6 µM (inactive)
AC50 [11]: 7.95 µM (active)

Cc1nnc(N/N=C/c2ccc(O)c([N+](=O)[O-])c2)nc1O
EC50 (Troponin, cardiac muscle): > 71.5 µM (inactive)

O=c1c2ccccc2nc2n1C1(CCCCC1)Cc1ccccc1-2
IC50 [12]: 2.41 µM (active)
AC50 [13]: 2.06 µM (active)

COc1ccc2c(c1)cc(C)c1nnc(SCC(=O)N(C)c3nc(-c4ccccc4)cs3)n12
EC50 [3]: > 32 µM (inactive)
IC50 (Cannabinoid receptor 1): > 32 µM (inactive)
EC50 (Cannabinoid receptor 2 [4]): > 32 µM (inactive)
IC50 (Cannabinoid receptor 2 [5]): > 32 µM (inactive)

CCCCN1C=CC(=C2C(=O)c3ccccc3C2=O)C=C1
EC50 [14]: 356 nM (active)
EC50 (BJ [15]): 7.56 µM (active)
EC50 (BJ [16]): > 150 µM (inconclusive)
AC50 (A-375): 20.6 µM (active)
EC50 (BJ [17]): 6.03 µM (active)
AC50 [18]: 921 nM (active)
EC50 [19]: 7.63 µM (active)

Cc1cc(C)c(S(=O)(=O)Nc2ccc3ccccc3c2)c(C)c1
IC50 [20]: > 100 µM (not active)
IC50 [1]: > 100 µM (inactive)

Cc1nn(C(C)(C)C)c(OC(=O)c2cccs2)c1Sc1ccccc1
IC50 [12]: 5.36 µM (active)

COC(=O)N1CCC2(CCN(Cc3nccs3)CC2)CC1
AC50 (Cytochrome P450 3A4): inconclusive

O=C(O)c1ccc(N2C(=O)CC(SC(=NCc3ccc4c(c3)OCO4)Nc3ccc(F)cc3)C2=O)cc1 (centres undefined)
IC50 [21]: 23.2 µM (inactive)
IC50 [22]: 24.5 µM (inactive)
IC50 [23]: 14.3 µM (inactive)
IC50 (CHO-K1): > 66.2 µM (inactive)
EC50 [24]: 4.89 µM (active)
EC50 (Streptococcus): 29 µM (active)
IC50 (cells): 23.9 µM (active)
CC50 [25]: 32.4 µM (active)

Cc1ccc(C(=O)c2c[nH]c(C(=O)NCCCN3CCOCC3)c2)cc1
AC50 (Cytochrome P450 3A4): inconclusive
